According to patent publication US10172830B2, “Pyrazolone compounds having human neutrophil elastase inhibitory properties” (CHIESI FARMACEUTICI S.P.A., priority 2016, dated 2019):

These compounds were tested against T1, human neutrophil elastase (HNE) (Homo sapiens, UniProt P08246) (assay: HNE enzyme assay (human neutrophil elastase enzyme activity assay)). Conditions: human leukocyte elastase 0.00072 U/mL; substrate MeOSuc-Ala-Ala-Pro-Val-AMC 100 μM; 25° C. for 30 minutes; at least two separate experiments; read-out: HNE inhibition (HNE enzyme inhibition, IC50 values).
T1 construct: purchased Sigma E8140
T1 sequence (P08246 30-247 limits assumed): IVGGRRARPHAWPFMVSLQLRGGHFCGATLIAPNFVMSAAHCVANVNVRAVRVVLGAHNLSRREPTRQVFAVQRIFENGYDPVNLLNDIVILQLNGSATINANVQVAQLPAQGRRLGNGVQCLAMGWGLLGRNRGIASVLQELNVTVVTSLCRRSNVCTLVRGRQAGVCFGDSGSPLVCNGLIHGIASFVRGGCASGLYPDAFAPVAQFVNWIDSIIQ
Type: biochemical
Summary of the method: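 Human leukocyte elastase (0.00072 U/mL) with 100 μM MeOSuc-AAPV-AMC in Tris/NaCl/CaCl2/Brij-35 buffer, pH 7.5, 1% DMSO, 30 min at 25 °C; stopped with soybean trypsin inhibitor. AMC fluorescence (380/460 nm) as % inhibition of control; IC50 from dose-response curves, ≥2 experiments.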

Structure (SMILES) | IC50 [nM]
C[C@H](NC(=O)c1c(-c2ccnn2-c2ccc(C#N)cc2)n(C)n(-c2cccc(C(F)(F)F)c2)c1=O)c1ncc(CN(C)C)o1 [Example 5, 2′-(4-Cyano-phenyl)-2-methyl-5-oxo-1-(3-trifluoromethyl-phenyl)-2,5-dihydro-1H,2′H-[3,3′]bipyrazolyl-4-carboxylic acid [(S)-1-(5-dimethylaminomethyl-oxazol-2-yl)-ethyl]-amide] | < 1
CC(C)[C@H](NC(=O)c1c(-c2ccnn2-c2ccc(C#N)cc2)n(C)n(-c2cccc(C(F)(F)F)c2)c1=O)c1ncc(C[N+](C)(C)C)o1 [Example 53, [2-((S)-1-{[2′-(4-Cyano-phenyl)-2-methyl-5-oxo-1-(3-trifluoromethyl-phenyl)-2,5-dihydro-1H,2′H-[3,3′]bipyrazolyl-4-carbonyl]-amino}-2-methyl-propyl)-oxazol-5-ylmethyl]-trimethyl-ammonium benzene sulphonate] | < 1
Cn1c(-c2ccnn2-c2ccc(C#N)cc2)c(C(=O)NC2(C(=O)NCC[N+](C)(C)C)CCCC2)c(=O)n1-c1cccc(C(F)(F)F)c1 [Example 57, {2-[(1-{[2′-(4-Cyano-phenyl)-2-methyl-5-oxo-1-(3-trifluoromethyl-phenyl)-2,5-dihydro-1H,2′H-[3,3′]bipyrazolyl-4-carbonyl]-amino}-cyclopentanecarbonyl)-amino]-ethyl}-trimethyl-ammonium benzene sulphonate] | < 1
CN(C)Cc1cnc(C(C)(C)NC(=O)c2c(-c3ccnn3-c3ccc(C#N)cc3)n(C)n(-c3cccc(C(F)(F)F)c3)c2=O)o1 [Example 10, 2′-(4-Cyano-phenyl)-2-methyl-5-oxo-1-(3-trifluoromethyl-phenyl)-2,5-dihydro-1H,2′H-[3,3′]bipyrazolyl-4-carboxylic acid [1-(5-dimethylaminomethyl-oxazol-2-yl)-1-methyl-ethyl]-amide] | < 1
Cn1c(-c2ccnn2-c2ccc(C#N)cc2)c(C(=O)N[C@H]2C[C@H](c3ncc(C[N+](C)(C)C)o3)C2)c(=O)n1-c1cccc(C(F)(F)F)c1 [Example 68, [2-(Trans-3-{[2′-(4-cyano-phenyl)-2-methyl-5-oxo-1-(3-trifluoromethyl-phenyl)-2,5-dihydro-1H,2′H-[3,3′]bipyrazolyl-4-carbonyl]-amino}-cyclobutyl)-oxazol-5-ylmethyl]-trimethyl-ammonium benzene sulphonate] | < 1
Cn1c(-c2ccnn2-c2ccc(C#N)cc2)c(C(=O)N[C@H]2CC[C@H](C(=O)N3CCC([N+](C)(C)C)CC3)CC2)c(=O)n1-c1cccc(C(F)(F)F)c1 [Example 60, [1-(4-{[2′-(4-Cyano-phenyl)-2-methyl-5-oxo-1-(3-trifluoromethyl-phenyl)-2,5-dihydro-1H,2′H-[3,3′]bipyrazolyl-4-carbonyl]-amino}-cyclohexanecarbonyl)-piperidin-4-yl]-trimethyl-ammonium benzene sulphonate] | < 1
C[C@H](NC(=O)c1c(-c2ccnn2-c2ccc(C#N)cc2)n(C)n(-c2cccc(C(F)(F)F)c2)c1=O)c1nnc(C[N+](C)(C)C)o1 [Example 37, [5-((S)-1-{[2′-(4-Cyano-phenyl)-2-methyl-5-oxo-1-(3-trifluoromethyl-phenyl)-2,5-dihydro-1H,2′H-[3,3′]bipyrazolyl-4-carbonyl]-amino}-ethyl)-[1,3,4]oxadiazol-2-ylmethyl]-trimethyl-ammonium benzene sulphonate] | < 1
Cn1c(-c2ccnn2-c2ccc(C#N)cc2)c(C(=O)NCCC[N+](C)(C)C)c(=O)n1-c1cccc(C(F)(F)F)c1 [Example 20, (3-{[2′-(4-Cyano-phenyl)-2-methyl-5-oxo-1-(3-trifluoromethyl-phenyl)-2,5-dihydro-1H,2′H-[3,3′]bipyrazolyl-4-carbonyl]-amino}-propyl)-trimethyl-ammonium benzene sulphonate] | 1 to 10
Cn1c(-c2ccnn2-c2ccc(C#N)cc2)c(C(=O)N[C@@H]2C[C@@H]3CN(C(=O)OC(C)(C)C)C[C@@H]3C2)c(=O)n1-c1cccc(C(F)(F)F)c1 [Example 4, (3aS,5R,6aR)-5-{[2′-(4-Cyano-phenyl)-2-methyl-5-oxo-1-(3-trifluoromethyl-phenyl)-2,5-dihydro-1H,2′H-[3,3′]bipyrazolyl-4-carbonyl]-amino}-hexahydro-cyclopenta[c]pyrrole-2-carboxylic acid tert-butyl ester] | < 1
Cn1c(-c2ccnn2-c2ccc(C#N)cc2)c(C(=O)NC2CCN(C(=O)CC[N+](C)(C)C)CC2)c(=O)n1-c1cccc(C(F)(F)F)c1 [Example 63, 3-(4-{[2′-(4-Cyano-phenyl)-2-methyl-5-oxo-1-(3-trifluoromethyl-phenyl)-2,5-dihydro-1H,2′H-[3,3′]bipyrazolyl-4-carbonyl]-amino}-piperidin-1-yl)-3-oxo-propyl]-trimethyl-ammonium benzene sulphonate] | < 1

Second part, the compound after the results:

IC50 [nM] | Structure (SMILES)
< 1 | C[C@H](NC(=O)c1c(-c2ccnn2-c2ccc(C#N)cc2)n(C)n(-c2cccc(C(F)(F)F)c2)c1=O)C(=O)N(C)C1CC[N+](C)(C)CC1 [Example 56, 4-[((S)-2-{[2′-(4-Cyano-phenyl)-2-methyl-5-oxo-1-(3-trifluoromethyl-phenyl)-2,5-dihydro-1H,2′H-[3,3′]bipyrazolyl-4-carbonyl]-amino}-propionyl)-methyl-amino]-1,1-dimethyl-piperidinium benzene sulphonate]
< 1 | Cn1c(-c2ccnn2-c2ccc(C#N)cc2)c(C(=O)NC2CCN(C(=O)C3CC[N+](C)(C)CC3)CC2)c(=O)n1-c1cccc(C(F)(F)F)c1 [Example 39, 4-(4-{[2′-(4-Cyano-phenyl)-2-methyl-5-oxo-1-(3-trifluoromethyl-phenyl)-2,5-dihydro-1H,2′H-[3,3′]bipyrazolyl-4-carbonyl]-amino}-piperidine-1-carbonyl)-1,1-dimethyl-piperidinium benzene sulphonate]
< 1 | C[C@H](NC(=O)c1c(-c2ccnn2-c2ccc(C#N)cc2)n(C)n(-c2cccc(C(F)(F)F)c2)c1=O)C(=O)OCC1CC[N+](C)(C)CC1 [Example 38, 4-((S)-2-{[2′-(4-Cyano-phenyl)-2-methyl-5-oxo-1-(3-trifluoromethyl-phenyl)-2,5-dihydro-1H,2′H-[3,3′]bipyrazolyl-4-carbonyl]-amino}-propionyloxymethyl)-1,1-dimethyl-piperidinium benzene sulphonate]
< 1 | C[C@H](NC(=O)c1c(-c2ccnn2-c2ccc(C#N)cc2)n(C)n(-c2cccc(C(F)(F)F)c2)c1=O)C(=O)N1CC[N+](C)(Cc2ccccc2)CC1 [Example 27, 1-Benzyl-4-((S)-2-{[2′-(4-cyano-phenyl)-2-methyl-5-oxo-1-(3-trifluoromethyl-phenyl)-2,5-dihydro-1H,2′H-[3,3′]bipyrazolyl-4-carbonyl]-amino}-propionyl)-1-methyl-piperazin-1-ium bromide]
< 1 | C[C@H](NC(=O)c1c(-c2ccnn2-c2ccc(C#N)cc2)n(C)n(-c2cccc(C(F)(F)F)c2)c1=O)C(=O)N(C)CC1CCN(C)CC1 [Example 7, 2′-(4-Cyano-phenyl)-2-methyl-5-oxo-1-(3-trifluoromethyl-phenyl)-2,5-dihydro-1H,2′H-[3,3′]bipyrazolyl-4-carboxylic acid {(S)-1-[methyl-(1-methyl-piperidin-4-ylmethyl)-carbamoyl]-ethyl}-amide]
< 1 | Cn1c(-c2ccnn2-c2ccc(C#N)cc2)c(C(=O)N[C@H]2CC[C@H](C(=O)OCC[N+](C)(C)C)CC2)c(=O)n1-c1cccc(C(F)(F)F)c1 [Example 65, [2-(Trans-4-{[2′-(4-cyano-phenyl)-2-methyl-5-oxo-1-(3-trifluoromethyl-phenyl)-2,5-dihydro-1H,2′H-[3,3′]bipyrazolyl-4-carbonyl]-amino}-cyclohexanecarbonyloxy)-ethyl]-trimethyl-ammonium benzene sulphonate]
< 1 | C[C@H](NC(=O)c1c(-c2ccnn2-c2ccc(C#N)cc2)n(C)n(-c2cccc(C(F)(F)F)c2)c1=O)C(=O)N(C)CC[N+](C)(C)C [Example 44, {2-[((S)-2-{[2′-(4-Cyano-phenyl)-2-methyl-5-oxo-1-(3-trifluoromethyl-phenyl)-2,5-dihydro-1H,2′H-[3,3′]bipyrazolyl-4-carbonyl]-amino}-propionyl)-methyl-amino]-ethyl}-trimethyl-ammonium benzene sulphonate]
< 1 | CN(C)CC(=O)O[C@H]1CC[C@H](NC(=O)c2c(-c3ccnn3-c3ccc(C#N)cc3)n(C)n(-c3cccc(C(F)(F)F)c3)c2=O)CC1 [Example 16, Dimethylamino-acetic acid trans-4-{[2′-(4-cyano-phenyl)-2-methyl-5-oxo-1-(3-trifluoromethyl-phenyl)-2,5-dihydro-1H,2′H-[3,3′]bipyrazolyl-4-carbonyl]-amino}-cyclohexyl ester]
< 1 | CCNC(=O)c1c(-c2ccnn2-c2ccc(C#N)cc2)n(C)n(-c2cccc(C(F)(F)F)c2)c1=O [Example 3, 2′-(4-Cyano-phenyl)-2-methyl-5-oxo-1-(3-trifluoromethyl-phenyl)-2,5-dihydro-1H,2′H-[3,3′]bipyrazolyl-4-carboxylic acid ethylamide]
< 1 | C[C@H](NC(=O)c1c(-c2ccnn2-c2ccc(C#N)cc2)n(C)n(-c2cccc(C(F)(F)F)c2)c1=O)C(=O)N1CCC([N+](C)(C)C)CC1 [Example 41, [1-((S)-2-{[2′-(4-Cyano-phenyl)-2-methyl-5-oxo-1-(3-trifluoromethyl-phenyl)-2,5-dihydro-1H,2′H-[3,3′]bipyrazolyl-4-carbonyl]-amino}-propionyl)-piperidin-4-yl]-trimethyl-ammonium benzene sulphonate]
